≈ marks a conversion by molar mass, not a printed value. Where a SMILES comes first, the peptide text is derived from it. [ ]: non-standard residue; d: D form. Aib = CC(C)(N)C(=O)O
How the values were obtained:
human GIPR = biological target: T1, human GIPR (Homo sapiens, UniProt P48546); test: Agonist activity assay for GIPR (cAMP HTRF); type: cell-based
T1 construct: expressed in transfected cells
T1 sequence (P48546 22-466): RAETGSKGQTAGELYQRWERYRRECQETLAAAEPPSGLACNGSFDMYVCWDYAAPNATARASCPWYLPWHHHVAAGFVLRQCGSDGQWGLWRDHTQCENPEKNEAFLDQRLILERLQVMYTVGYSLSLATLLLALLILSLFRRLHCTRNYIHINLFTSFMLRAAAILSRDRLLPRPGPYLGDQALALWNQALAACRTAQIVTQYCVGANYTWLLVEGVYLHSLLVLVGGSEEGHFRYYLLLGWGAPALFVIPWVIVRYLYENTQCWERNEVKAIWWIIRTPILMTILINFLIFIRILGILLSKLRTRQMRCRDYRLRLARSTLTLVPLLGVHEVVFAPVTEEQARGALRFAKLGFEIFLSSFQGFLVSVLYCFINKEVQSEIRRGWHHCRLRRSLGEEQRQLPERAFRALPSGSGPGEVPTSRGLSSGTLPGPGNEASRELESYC
Protocol: (§1) The activation of GCGR by related compounds will stimulate the formation of cyclic adenosine monophosphate (cAMP) in cells. Thus, the receptor activity can be monitored by cAMP production in proper cells expressing the receptor.
(§2) Agonist activity assay for GCGR: Cryopreserved stable CHO-K1/GCGR/CRE-Luc cells were taken from a liquid nitrogen tank, thawed in a 37° C. water bath, resuspended in DMEM/F12 medium (Sigma Cat #D8437), centrifuged, and seeded into T75 culture flasks. The cells were passaged at least once for subsequent tests. Before testing, the cells were trypsinized, centrifuged, washed once, and resuspended in serum-free DMEM/F12 medium. The cell density was adjusted, and the cells were plated in a 96-well plate at a density of 2,500 cells/5 μL/well. A 1×buffer solution in Cisbio-cAMP-Gs Dynamic kit was prepared, and IBMX was added at a final concentration of 0.5 mM. 5 μL of polypeptide serially diluted by buffer was added into each well, and the plate was shaken gently for mixing and incubated for 30 minutes at 37° C. cAMP-d2 and Anti-cAMP-Eu^3+-Cryptate were 20-fold diluted with cAMP Lysis and detection buffer respectively and mixed well. 5 μL of diluted cAMP-d2 solution and 5 μL of diluted Anti-cAMP-Eu^3+-Cryptate solution were sequentially added into each well. The mixture was mixed well by moderate vibration, and incubated for 1 hour at room temperature away from light.
Agonist activity assay for GIPR: The method differed from the method described above for the agonist activity assay for GCGR in that a stable CHO-K1/GIPR cell line was used, and the cell density was 3,000 cells/5 μL/well.

[1] = system: insulin-induced hypoglycemia rat model; test: Efficacy in insulin-induced hypoglycemic rat model; type: in vivo, SD rats; conditions: for Blood glucose 60 min / Blood glucose 75 min / Blood glucose 90 min / Blood glucose 105 min: insulin 0.65 IU/kg at T0
[2] = biological target: T2, human glucagon receptor (GCGR) (Homo sapiens, UniProt P47871); test: Agonist activity assay for GCGR (cAMP HTRF); type: cell-based; conditions: normalized by the activity of the native glucagon
T2 construct: expressed in transfected cells
T2 sequence (P47871 26-477): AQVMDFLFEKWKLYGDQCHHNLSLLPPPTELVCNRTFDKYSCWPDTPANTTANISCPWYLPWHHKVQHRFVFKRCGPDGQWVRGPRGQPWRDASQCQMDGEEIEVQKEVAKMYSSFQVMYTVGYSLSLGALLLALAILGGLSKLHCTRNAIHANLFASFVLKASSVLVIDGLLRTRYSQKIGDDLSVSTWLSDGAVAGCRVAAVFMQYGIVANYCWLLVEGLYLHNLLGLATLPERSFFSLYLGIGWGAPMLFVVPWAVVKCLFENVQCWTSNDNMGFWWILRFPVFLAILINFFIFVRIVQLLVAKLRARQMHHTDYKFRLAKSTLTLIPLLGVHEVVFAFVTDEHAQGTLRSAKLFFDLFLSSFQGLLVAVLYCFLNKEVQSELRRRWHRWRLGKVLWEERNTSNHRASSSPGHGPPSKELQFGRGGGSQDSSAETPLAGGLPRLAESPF
Protocol: The activation of GCGR by related compounds will stimulate the formation of cyclic adenosine monophosphate (cAMP) in cells. Thus, the receptor activity can be monitored by cAMP production in proper cells expressing the receptor. […] The cells were passaged at least once for subsequent tests. Before testing, the cells were trypsinized, centrifuged, washed once, and resuspended in serum-free DMEM/F12 medium. The cell density was adjusted, and the cells were plated in a 96-well plate at a density of 2,500 cells/5 μL/well. […] The mixture was mixed well by moderate vibration, and incubated for 1 hour at room temperature away from light.

[3] = system: normal rats (blood glucose); test: Efficacy in normoglycemic rat model; type: in vivo, SD rats; conditions: for Blood glucose 15 min / Blood glucose 30 min / Blood glucose 45 min / Blood glucose 60 min: normal rats; for Hyperglycemic efficacy (in words): normoglycemic rats, subcutaneous
[4] = Maximum solubility in phosphate buffer pH 7.4; type: physicochemical; conditions: phosphate buffer pH 7.4, room temperature
human GLP-1R = biological target: T3, human GLP-1R (Homo sapiens, UniProt P43220); test: Agonist activity assay for GLP-1R (cAMP HTRF); type: cell-based
T3 construct: expressed in transfected cells
T3 sequence (P43220 24-463): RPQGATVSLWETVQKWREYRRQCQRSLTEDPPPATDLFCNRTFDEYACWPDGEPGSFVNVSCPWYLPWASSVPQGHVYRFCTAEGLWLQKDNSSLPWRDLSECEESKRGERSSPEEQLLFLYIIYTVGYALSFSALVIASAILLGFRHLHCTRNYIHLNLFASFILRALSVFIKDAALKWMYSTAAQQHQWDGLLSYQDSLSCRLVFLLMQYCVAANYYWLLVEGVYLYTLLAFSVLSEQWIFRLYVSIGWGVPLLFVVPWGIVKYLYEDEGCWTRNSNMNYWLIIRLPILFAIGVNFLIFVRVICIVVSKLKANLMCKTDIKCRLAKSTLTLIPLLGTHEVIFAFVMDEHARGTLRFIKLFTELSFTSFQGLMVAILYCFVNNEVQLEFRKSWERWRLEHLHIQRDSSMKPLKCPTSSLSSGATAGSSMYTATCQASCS
Protocol: as §1, §2
Agonist activity assay for GLP-1R: The method differed from the method described above for the agonist activity assay for GCGR in that a stable CHO-GLP-1R cell line was used.

[5] = human, microsomes, 0.25 h, 1 μM
[6] = 6 nmol/kg subcutaneous at 45 min
[7] = 12 nmol/kg subcutaneous at 45 min
[8] = 20 nmol/kg subcutaneous at 45 min
[9] = 0.5 nmol/kg subcutaneous single dose
[10] = 2 nmol/kg subcutaneous single dose
[11] = 6 nmol/kg subcutaneous single dose

EC50 (human GIPR; CHO-K1/GIPR cell line, cAMP): > 100 nM | GIPR % Activity relative to native GIP (human GIPR; relative to native GIP): <0.0700% | Percentage residues 0 min (human liver microsomes): 100.0% | T½ (human liver microsomes; human, microsomes, 1 μM): 2.0895 h | Percentage residues 15 min (human liver microsomes; [5]): 100.5% | Percentage residues 30 min (human liver microsomes; human, microsomes, 0.5 h, 1 μM): 89.85% | Percentage residues 60 min (human liver microsomes; human, microsomes, 1 h, 1 μM): 66.96% | Percentage residues 120 min (human liver microsomes; human, microsomes, 2 h, 1 μM): 41.48% | Relative activity [2]: 318% | solubility at 5 min [4]: 5190 µg/mL (≈ 1520 µM) | GLP-1R % Activity relative to native GLP-1 (human GLP-1R): 0.192% | Percentage residues 0 min (human kidney microsomes): 100.0% | Percentage residues 60 min (human kidney microsomes): 25.16% | T½ (human kidney microsomes; human, microsomes, 1 μM): 0.6365 h | Percentage residues 15 min (human kidney microsomes; [5]): 63.34% | Percentage residues 30 min (human kidney microsomes; human, microsomes, 0.5 h, 1 μM): 45.04% | Percentage residues 120 min (human kidney microsomes; human, microsomes, 2 h, 1 μM): 10.61%
Structure (SMILES): CC(C)C[C@H](NC(=O)[C@H](Cc1ccc(O)cc1)NC(=O)[C@H](CCCCN)NC(=O)[C@H](CO)NC(=O)[C@H](Cc1ccc(O)cc1)NC(=O)[C@H](CC(=O)O)NC(=O)[C@H](CO)NC(=O)[C@@H](NC(=O)[C@H](Cc1ccccc1)NC(=O)[C@@H](NC(=O)CNC(=O)[C@H](CCC(N)=O)NC(=O)[C@H](CO)NC(=O)[C@@H](N)Cc1c[nH]cn1)[C@@H](C)O)[C@@H](C)O)C(=O)N[C@@H](CC(=O)O)C(=O)N[C@@H](CC(C)C)C(=O)NC(C)(C)C(=O)N[C@@H](CCCNC(=N)N)C(=O)N[C@@H](C)C(=O)N[C@@H](CCC(N)=O)C(=O)N[C@@H](CCC(=O)O)C(=O)N[C@@H](Cc1ccccc1)C(=O)N[C@H](C(=O)N[C@@H](CCC(N)=O)C(=O)N[C@@H](Cc1c[nH]c2ccccc12)C(=O)N[C@@H](CC(C)C)C(=O)N[C@@H](CCC(=O)O)C(=O)N[C@@H](CO)C(=O)N[C@H](C(=O)O)[C@@H](C)O)C(C)C [Compound 40] (H-HSQGTFTSDYSKYLDL[Aib]RAQEFVQWLEST-OH)
Blood glucose 60 min [1, 6]: 6.65 mmol/L | Blood glucose 75 min [1, 6]: 9.05 mmol/L | Blood glucose 90 min [1, 6]: 7.08 mmol/L | Blood glucose 105 min [1, 6]: 6.99 mmol/L | Blood glucose 60 min [1, 7]: 7.40 mmol/L | Blood glucose 75 min [1, 7]: 9.50 mmol/L | Blood glucose 90 min [1, 7]: 9.13 mmol/L | Blood glucose 105 min [1, 7]: 8.63 mmol/L | Blood glucose 60 min [1, 8]: 6.87 mmol/L | Blood glucose 75 min [1, 8]: 9.68 mmol/L | Blood glucose 90 min [1, 8]: 9.28 mmol/L | Blood glucose 105 min [1, 8]: 9.00 mmol/L | Effect on raising blood glucose level (in words) ([1]; same dose (12 nmol/kg)): significantly better than that of Dasiglucagon and lasts longer | Blood glucose 15 min [3, 9]: 9.45 mmol/L | Blood glucose 30 min [3, 9]: 8.55 mmol/L | Blood glucose 45 min [3, 9]: 6.93 mmol/L | Blood glucose 60 min [3, 9]: 6.10 mmol/L | Blood glucose 15 min [3, 10]: 8.60 mmol/L | Blood glucose 30 min [3, 10]: 9.52 mmol/L | Blood glucose 45 min [3, 10]: 8.35 mmol/L | Blood glucose 60 min [3, 10]: 6.40 mmol/L | Blood glucose 15 min [3, 11]: 9.63 mmol/L | Blood glucose 30 min [3, 11]: 10.22 mmol/L | Blood glucose 45 min [3, 11]: 8.83 mmol/L | Blood glucose 60 min [3, 11]: 7.10 mmol/L | Hyperglycemic efficacy (in words) ([3]; listed as Glucagon analog 40): raised the blood glucose level in rats in a dose-dependent manner | Hyperglycemic efficacy (in words) ([3]; listed as glucagon analog 40): significantly better than that of Dasiglucagon

Source: patent publication US20240279298A1 (BEIJING TUO JIE BIOPHARMACEUTICAL CO. LTD., priority 2021, published 2024)
